One test concerns the target Kallikrein-7 (Homo sapiens, UniProt P49862). Nature of the test: Fluorescence Intensity-based biochemical primary high throughput dose response assay to identify activators of kallikrein-7 (K7) zymogen.
Test [1] deals with CAAX prenyl protease 2 (Saccharomyces cerevisiae S288c, UniProt Q03530). In kind it is biochemical.
For test [2], the target named is CAAX prenyl protease 2 (Homo sapiens, UniProt Q9Y256). Nature of the test: human Rce1 protease inhibitors, dose response, biochemical, yeast membranes, quenched-peptide fluorescence, cherry-pick (AID 588849).
CAAX prenyl protease 2 (Homo sapiens, UniProt Q9Y256), sequence (Q9Y256 whole entry): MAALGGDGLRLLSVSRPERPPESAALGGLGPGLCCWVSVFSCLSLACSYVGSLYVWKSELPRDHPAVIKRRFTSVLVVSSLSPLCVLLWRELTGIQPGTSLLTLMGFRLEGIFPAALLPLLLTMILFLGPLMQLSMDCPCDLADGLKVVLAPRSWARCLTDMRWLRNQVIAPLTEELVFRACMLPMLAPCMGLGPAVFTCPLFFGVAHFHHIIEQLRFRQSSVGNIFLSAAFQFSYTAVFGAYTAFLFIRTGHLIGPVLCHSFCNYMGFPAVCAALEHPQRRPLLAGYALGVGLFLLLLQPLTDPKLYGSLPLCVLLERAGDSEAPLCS
The next test addresses Trypsin (Sus scrofa, UniProt P00761). Nature of the test: porcine trypsin inhibitors, dose response, selectivity assay for Rce1 protease inhibitor project, biochemical, quenched peptide fluorescence, cherry-pick (AID 488789).
The test system of test [3] is BJ. Nature of the test: cytotoxicity toward BJ-TERT-LT-ST fibroblasts, dose response, cell-based, RAS-independent, luminescence (AID 1935).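 Further: BJ fibroblasts immortalized with TERT plus LT and ST oncogenes.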 In kind it is functional. As to conditions: Homo sapiens.
In test [4] the test system is BJ. Nature of the test: cytotoxicity toward BJ-TERT fibroblasts, dose response, cell-based, RAS-independent, luminescence (AID 1933). As to conditions: Homo sapiens. In kind it is functional.
The nature of test [5]: NIH-3T3 fibroblast cytotoxicity, dose response, cytotoxicity control, cell-based, fluorescence, Alamar Blue, secondary assay (AID 2327).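 Further: NIH-3T3 mouse fibroblasts cultured with fluconazole at 8 µg/mL.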 In kind it is functional. In general terms: Alamar Blue is a resazurin reagent that responds to reducing activity.
A short description of test [6]: C. albicans growth with fluconazole, confirmation, fluorescence, retest (AID 2467). In kind it is functional, cell-based.
Test [7] addresses T1, Serine/threonine-protein phosphatase (Candida dubliniensis (strain CD36 / CBS 7987 / NCPF 3949 / NRRLY-17841) (Yeast), UniProt B9W6M3).
T1 sequence (B9W6M3 whole entry): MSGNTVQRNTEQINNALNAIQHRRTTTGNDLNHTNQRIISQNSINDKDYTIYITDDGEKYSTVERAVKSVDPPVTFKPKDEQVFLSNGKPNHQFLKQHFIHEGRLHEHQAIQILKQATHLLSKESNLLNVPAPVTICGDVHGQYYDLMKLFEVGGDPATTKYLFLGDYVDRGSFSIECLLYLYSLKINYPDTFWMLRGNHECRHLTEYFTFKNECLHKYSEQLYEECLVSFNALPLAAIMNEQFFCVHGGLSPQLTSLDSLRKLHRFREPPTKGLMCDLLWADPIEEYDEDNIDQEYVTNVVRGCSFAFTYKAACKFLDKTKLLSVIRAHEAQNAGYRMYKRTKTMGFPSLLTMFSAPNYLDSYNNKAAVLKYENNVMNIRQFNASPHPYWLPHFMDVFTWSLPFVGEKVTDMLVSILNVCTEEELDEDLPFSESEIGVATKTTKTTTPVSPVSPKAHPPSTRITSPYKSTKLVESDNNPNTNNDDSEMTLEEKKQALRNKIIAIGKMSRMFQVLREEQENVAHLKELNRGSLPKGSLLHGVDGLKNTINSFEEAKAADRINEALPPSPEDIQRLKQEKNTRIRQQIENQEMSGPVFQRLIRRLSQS
Description: calcineurin pathway inhibitors in yeast reporter, dose response, S. cerevisiae, CDRE-lacZ, luminescence, secondary (AID 2388).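 Further: yeast reporter cells carrying a calcineurin-responsive lacZ construct stimulated with calcium chloride; luminescent beta-galactosidase reporter signal in whole cells rather than isolated phosphatase activity; potency for inhibition where a drop in reporter signal means calcineurin blockade.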 In kind it is functional, cell-based.

Test [8] deals with T2, Heat shock factor protein 1 (Mus musculus, UniProt P38532).
T2 sequence (P38532 whole entry): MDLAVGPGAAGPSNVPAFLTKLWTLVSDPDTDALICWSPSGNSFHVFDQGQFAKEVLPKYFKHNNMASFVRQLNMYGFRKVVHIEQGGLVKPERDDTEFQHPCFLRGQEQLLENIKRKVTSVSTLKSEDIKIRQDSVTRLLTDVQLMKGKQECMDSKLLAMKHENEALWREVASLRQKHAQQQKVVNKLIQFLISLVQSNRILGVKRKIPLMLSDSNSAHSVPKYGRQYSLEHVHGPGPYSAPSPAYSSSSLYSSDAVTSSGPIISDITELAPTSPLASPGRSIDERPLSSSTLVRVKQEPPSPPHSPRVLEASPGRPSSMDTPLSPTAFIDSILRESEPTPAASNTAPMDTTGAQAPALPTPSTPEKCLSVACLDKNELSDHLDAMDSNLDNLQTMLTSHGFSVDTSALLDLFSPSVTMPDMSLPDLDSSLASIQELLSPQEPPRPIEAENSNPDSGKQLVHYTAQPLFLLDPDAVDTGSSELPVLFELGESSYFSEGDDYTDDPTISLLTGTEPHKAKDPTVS
Nature of the test: HSF1 potentiators in luciferase reporter cells, confirmation, cell-based, NIH3T3, luminescence, dose retest (AID 435004).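 Further: stress induced by proteasome inhibitor MG132 added 30 min after compound; luciferase reporter driven by HSF1 response element in NIH3T3 cells; actives raise luminescence as potentiators of the MG132 stress response.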 In kind it is functional.

Another test relates to Streptococcus. Nature of the test: Group A Streptococcus viability loss, dose response, counter-screen for streptokinase expression inhibitor project, luminescence, BacTiterGlo (AID 1915).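 Further: potency for reduction of bacterial viability or growth.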 In kind it is functional, organism-based.
The target in a further test is NS3 (Hepatitis C virus, UniProt A3EZJ3). Nature of the test: PubChem AID 2173. Also on record: species or system Hepacivirus hominis.
NS3, sequence (A3EZJ3 whole entry): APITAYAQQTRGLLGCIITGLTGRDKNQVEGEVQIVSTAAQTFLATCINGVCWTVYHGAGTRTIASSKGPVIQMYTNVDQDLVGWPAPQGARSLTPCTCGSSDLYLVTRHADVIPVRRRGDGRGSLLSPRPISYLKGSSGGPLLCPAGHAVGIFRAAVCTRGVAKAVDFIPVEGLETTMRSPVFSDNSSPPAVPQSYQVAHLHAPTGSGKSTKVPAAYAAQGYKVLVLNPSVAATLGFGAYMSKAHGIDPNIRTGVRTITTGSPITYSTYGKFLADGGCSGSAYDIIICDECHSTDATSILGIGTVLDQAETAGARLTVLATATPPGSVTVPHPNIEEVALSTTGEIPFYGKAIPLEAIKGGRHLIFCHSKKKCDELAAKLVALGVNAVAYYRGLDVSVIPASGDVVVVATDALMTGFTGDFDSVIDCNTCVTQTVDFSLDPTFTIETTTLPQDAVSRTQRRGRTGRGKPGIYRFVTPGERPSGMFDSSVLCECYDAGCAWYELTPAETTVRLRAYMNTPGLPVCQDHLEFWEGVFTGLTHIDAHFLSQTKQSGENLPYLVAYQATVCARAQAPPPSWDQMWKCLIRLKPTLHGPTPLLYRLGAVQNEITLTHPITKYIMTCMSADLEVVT
The nature of test [9]: cytotoxicity toward DRD oncogenic fibroblasts, dose response, cell-based, non-viral oncogenic, luminescence (AID 1934). In kind it is functional. As to conditions: Homo sapiens.
Test [10] concerns the target Heat shock protein HSP 90-alpha (Homo sapiens, UniProt P07900). Type of test: functional, organism-based.
The next test has as its target T3, Streptokinase A (Streptococcus pyogenes serotype M1, UniProt P10520).
T3 sequence (P10520 whole entry): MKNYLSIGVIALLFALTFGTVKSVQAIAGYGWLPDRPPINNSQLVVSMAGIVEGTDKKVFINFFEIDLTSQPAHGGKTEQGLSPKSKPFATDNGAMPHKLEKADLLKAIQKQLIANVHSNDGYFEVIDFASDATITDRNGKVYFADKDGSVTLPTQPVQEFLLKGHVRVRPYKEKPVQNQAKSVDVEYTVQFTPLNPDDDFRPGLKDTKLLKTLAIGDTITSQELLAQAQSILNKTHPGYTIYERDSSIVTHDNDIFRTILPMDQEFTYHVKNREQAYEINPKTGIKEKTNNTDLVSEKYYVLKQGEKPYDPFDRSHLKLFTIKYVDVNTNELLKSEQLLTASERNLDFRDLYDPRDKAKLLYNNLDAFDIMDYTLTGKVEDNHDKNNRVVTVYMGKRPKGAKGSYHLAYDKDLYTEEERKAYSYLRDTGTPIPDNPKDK
Description: S. pyogenes streptokinase expression inhibitors, potency, dose response, plasminogen activation absorbance, OD405 (AID 1914).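 Further: secreted streptokinase activity via plasminogen activation per viability signal from cell pellet.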 In kind it is functional, Streptococcus pyogenes M1 GAS.

Test [11] is described as follows: inhibitors of intracellular T. cruzi replication, confirmation, NIH3T3 host cells, beta-gal luminescence (AID 2044).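 Further: intracellular parasites grown in NIH/3T3 mouse fibroblasts as host cells; luminescent beta-galactosidase reporter signal from transgenic T. cruzi replicating inside host cells; inhibitors lower the luminescence signal.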 In kind it is functional, cell-based.
In test [12] the test system is BJ. Description: cells. As to conditions: Homo sapiens. In kind it is functional, cell-based.
For test [13], the target named is T1, Serine/threonine-protein phosphatase. Nature of the test: Fluorescence Cell-Based Secondary Assay to Identify Inhibitors of Calcineurin. [Related pubchem assays (depositor defined):AID1979, AID2007]. In kind it is functional.
Test [14] deals with ATP-dependent molecular chaperone HSP82 (Candida albicans (strain WO-1) (Yeast), UniProt C4YTQ8). Nature of the test: loss of DOC-induced GRE-beta-galactosidase reporter signal, dose response, Hsp90 inhibitor project, S. cerevisiae, luminescence (AID 2400).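 Further: beta-galactosidase luminescence from glucocorticoid response element reporter as proxy for Hsp90 function; inhibitor potency where signal loss means Hsp90 inhibition.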 Type of test: functional, cell-based.
ATP-dependent molecular chaperone HSP82, sequence (C4YTQ8 whole entry): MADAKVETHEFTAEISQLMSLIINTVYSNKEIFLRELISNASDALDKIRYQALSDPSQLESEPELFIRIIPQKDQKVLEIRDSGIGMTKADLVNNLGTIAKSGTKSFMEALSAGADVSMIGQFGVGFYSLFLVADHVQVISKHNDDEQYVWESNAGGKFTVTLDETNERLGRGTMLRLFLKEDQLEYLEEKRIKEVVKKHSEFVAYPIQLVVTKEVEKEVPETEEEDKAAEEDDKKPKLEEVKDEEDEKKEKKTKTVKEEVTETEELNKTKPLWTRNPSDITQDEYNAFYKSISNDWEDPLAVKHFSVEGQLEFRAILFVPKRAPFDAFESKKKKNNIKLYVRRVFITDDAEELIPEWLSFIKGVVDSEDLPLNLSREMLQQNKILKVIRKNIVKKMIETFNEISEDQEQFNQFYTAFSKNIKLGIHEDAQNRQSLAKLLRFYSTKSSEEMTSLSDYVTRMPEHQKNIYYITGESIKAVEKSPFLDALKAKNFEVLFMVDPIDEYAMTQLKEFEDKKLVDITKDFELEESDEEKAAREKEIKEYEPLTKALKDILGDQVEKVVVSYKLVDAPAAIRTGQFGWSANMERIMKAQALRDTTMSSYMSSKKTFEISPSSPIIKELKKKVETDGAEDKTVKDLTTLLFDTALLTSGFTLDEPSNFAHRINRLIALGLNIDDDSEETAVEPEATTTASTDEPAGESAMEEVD
The subject of test [15] is Streptococcus sp. 'group A'. Description: growth inhibition of control SK(-) GAS strain, dose response, counter-screen for streptokinase expression inhibitor project, luminescence, kanamycin, BacTiterGlo, confirmation (AID 1900). In kind it is functional, organism-based. On the technique in general: The purpose of a counterscreen is to sort out artefacts and off-target activity.

Test [16] is described as follows: cytotoxicity toward NIH3T3 fibroblasts, dose response, counter-screen, cell-based, ATP luminescence, mouse fibroblasts (AID 2010).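 Further: cells exposed to compound for about 90 hours before reading.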 In kind it is functional.
In test [17] the test system is Vero. Description: cells. Type of test: functional. Particulars: Chlorocebus sabaeus.
Test [18] has as its target 5-hydroxytryptamine receptor 5A (Homo sapiens, UniProt P47898). Nature of the test: Counterscreen for agonists of OPRM1-OPRD1 heterodimerization: luminescence-based cell-based high throughput dose response assay to identify agonists of 5-hydroxytryptamine (serotonin) 5A receptor (HTR5A). [Related pubchem assays (depositor defined):AID504326, AID504355, AID504692, AID504904, AID504905]. In kind it is functional.

Test [19] deals with Delta-type opioid receptor (Homo sapiens, UniProt P41143). Description: Counterscreen for agonists of heterodimerization of the mu 1 (OPRM1) and delta 1 (OPRD1) opioid receptors: Luminescence-based cell-based high throughput dose response assay to identify agonists of OPRD1 homodimerization. [Related pubchem assays (depositor defined):AID504326, AID504355, AID504692, AID504904, AID504905]. In kind it is functional.
Delta-type opioid receptor, sequence (P41143 whole entry): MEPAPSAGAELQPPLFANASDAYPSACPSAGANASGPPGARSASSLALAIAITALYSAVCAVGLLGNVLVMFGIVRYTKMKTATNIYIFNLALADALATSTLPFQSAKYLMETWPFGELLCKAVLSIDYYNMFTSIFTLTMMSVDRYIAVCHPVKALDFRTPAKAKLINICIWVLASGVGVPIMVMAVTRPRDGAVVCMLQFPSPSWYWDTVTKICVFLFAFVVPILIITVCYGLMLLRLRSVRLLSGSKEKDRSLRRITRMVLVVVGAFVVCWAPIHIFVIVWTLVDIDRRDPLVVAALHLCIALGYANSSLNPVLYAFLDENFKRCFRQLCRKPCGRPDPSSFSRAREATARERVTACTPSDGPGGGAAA

The target in a further test is Mu-type opioid receptor (Homo sapiens, UniProt P35372). Description: Counterscreen for agonists of heterodimerization of the mu 1 (OPRM1) and delta 1 (OPRD1) opioid receptors: Luminescence-based cell-based high throughput dose response assay to identify agonists of OPRM1 homodimerization. In kind it is functional.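 Further: U2OS cells expressing OPRM1 and beta-arrestin as split beta-galactosidase partners.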
Mu-type opioid receptor, sequence (P35372 whole entry): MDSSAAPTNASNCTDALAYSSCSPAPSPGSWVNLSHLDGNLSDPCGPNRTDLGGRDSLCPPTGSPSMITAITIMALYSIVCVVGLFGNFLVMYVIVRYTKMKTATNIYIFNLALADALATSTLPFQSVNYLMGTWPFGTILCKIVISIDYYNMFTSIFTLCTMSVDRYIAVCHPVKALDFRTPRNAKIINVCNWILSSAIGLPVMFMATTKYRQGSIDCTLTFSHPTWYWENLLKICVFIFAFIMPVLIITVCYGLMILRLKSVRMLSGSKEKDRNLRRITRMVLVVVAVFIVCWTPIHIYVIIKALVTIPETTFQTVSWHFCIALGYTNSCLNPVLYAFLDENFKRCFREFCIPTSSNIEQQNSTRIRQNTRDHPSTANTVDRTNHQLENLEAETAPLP
Test [20] deals with Vero. Description: cells. As to conditions: Chlorocebus sabaeus. Type of test: functional, cell-based.
The target in test [21] is Opioid receptors; mu & delta (Homo sapiens, UniProt P41143+P35372). Description: agonists of MOR-DOR heterodimerization, dose response, cell-based, luminescence (AID 588407). Type of test: functional.

Active and inactive are the calls of the source. For most assays here, no stated cut-off is given here; in the data, actives have a measured EC50 and inactives only a lower limit.

Kallikrein-7, sequence (P49862 whole entry): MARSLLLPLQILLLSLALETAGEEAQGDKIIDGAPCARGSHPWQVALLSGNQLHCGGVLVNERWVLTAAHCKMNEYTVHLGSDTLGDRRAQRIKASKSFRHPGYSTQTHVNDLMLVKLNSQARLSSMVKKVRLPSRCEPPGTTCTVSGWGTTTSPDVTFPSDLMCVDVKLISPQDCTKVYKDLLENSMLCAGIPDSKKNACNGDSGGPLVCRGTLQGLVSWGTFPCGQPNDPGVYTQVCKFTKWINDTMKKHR
Trypsin, sequence (P00761 whole entry): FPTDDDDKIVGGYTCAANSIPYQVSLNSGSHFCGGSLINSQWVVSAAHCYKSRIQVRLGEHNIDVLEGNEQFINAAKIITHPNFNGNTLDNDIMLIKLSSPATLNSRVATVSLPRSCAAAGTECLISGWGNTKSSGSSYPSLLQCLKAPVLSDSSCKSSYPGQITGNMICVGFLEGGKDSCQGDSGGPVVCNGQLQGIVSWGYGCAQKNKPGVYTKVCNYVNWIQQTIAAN
CAAX prenyl protease 2 (Saccharomyces cerevisiae S288c, UniProt Q03530), sequence (Q03530 whole entry): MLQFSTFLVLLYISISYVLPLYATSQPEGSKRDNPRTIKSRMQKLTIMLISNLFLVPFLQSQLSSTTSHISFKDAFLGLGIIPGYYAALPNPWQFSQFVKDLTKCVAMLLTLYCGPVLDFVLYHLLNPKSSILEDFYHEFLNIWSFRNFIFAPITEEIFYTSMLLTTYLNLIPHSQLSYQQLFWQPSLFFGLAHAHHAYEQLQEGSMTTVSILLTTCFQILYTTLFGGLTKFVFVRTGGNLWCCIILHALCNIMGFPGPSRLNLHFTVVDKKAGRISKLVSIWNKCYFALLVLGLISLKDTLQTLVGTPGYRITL
5-hydroxytryptamine receptor 5A, sequence (P47898 whole entry): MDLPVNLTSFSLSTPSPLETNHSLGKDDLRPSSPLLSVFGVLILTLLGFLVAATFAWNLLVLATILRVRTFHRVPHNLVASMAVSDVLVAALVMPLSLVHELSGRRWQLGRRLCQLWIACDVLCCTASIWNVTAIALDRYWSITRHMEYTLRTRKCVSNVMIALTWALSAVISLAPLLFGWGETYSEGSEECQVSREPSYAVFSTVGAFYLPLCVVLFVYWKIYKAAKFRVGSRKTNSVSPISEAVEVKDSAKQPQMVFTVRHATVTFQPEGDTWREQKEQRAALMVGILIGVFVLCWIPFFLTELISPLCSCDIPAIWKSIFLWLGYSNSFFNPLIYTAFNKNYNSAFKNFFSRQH

`CCNc1nc(C)c(CN(C(C)=O)c2ccccc2)nc1C#N`: the EC50 – broadly, the midpoint of the concentration-response curve – on Kallikrein-7 is > 69.5 µM (inactive). Also, the AC50 (as a rule, the midpoint of the concentration-response curve, whichever way the signal moves) on CAAX prenyl protease 2 [1] was 48.9 µM (active); at CAAX prenyl protease 2 [2], 5.91 µM (active); at Trypsin, 5.26 µM (active).

`Cc1ccc(/C=C/C(=O)c2ccccc(=O)c2O)cc1C`: the EC50 with BJ [3] was > 150 µM (not active); with BJ [4], 23.7 µM (active); in test [5] it was > 160 µM (inconclusive); in [6] it was 0.851 µM (active); in [7] it was 5.55 µM (active); in [8], 40 µM (active). Moreover, the concentration giving a half-maximal response (EC50) in the test with Streptococcus is 11.5 µM (active); in test [9], 77.7 µM (active); at Streptokinase A, > 150 µM (not active); in test [11], 1.83 µM (active); with BJ [12], 24.9 µM (active); in test [13], 12.9 µM (active). The concentration giving a half-maximal response (EC50) in test [14] is 2.09 µM (active); in [15], 5.05 µM (active); in [16], 17.5 µM (active). The IC50 – broadly, the concentration at which inhibition is half-maximal – at NS3 is 2.63 µM (active). Besides, the half-maximal activity concentration (AC50) in [10] was 4.22 µM (active).

For `CO[C@H]1[C@H](O)[C@H](O[C@H]2CC[C@@]3(C=O)[C@H](CC[C@@H]4[C@@H]3CC[C@]3(C)[C@@H](C5=CC(=O)OC5)CC[C@]43O)C2)O[C@@H](C)[C@@H]1O` [PERUVOSIDE], the CC50 (in general, the concentration that lowers cell viability or growth by half) with Vero [17] is < 0.05 µM (active). Further, the EC50 was > 92.5 µM (inactive) in test [18], > 92.5 µM (inactive) in test [19], > 92.5 µM (inactive) at Mu-type opioid receptor and greater than 0.1268 µM in test [21]. The 50% inhibitory concentration (IC50) in the test on Vero [20] was < 0.05 µM (active).

Values taken from ChEMBL document CHEMBL1201862, “PubChem BioAssay data set” (2004).
